According to patent US10858398B2, “Lytic peptide biosensor and methods of making and using the same” (Deetex, LLC, priority 2018, dated 2020):

Experiments:
Assay type in all cases: cell-based
[1] = system: E. coli bacterial cells induced to produce β-galactosidase; experiment: β-galactosidase release colour change assay (X-gal), induced bacteria in welled plate; conditions: then X-gal 15 minutes at 37° C.
Protocol: (§1) Non-induced E. coli cells were deposited in wells F1-F3 (control). The cells were treated as follows: Group 1, 10% SDS was added to wells A1-A3, B1-B3, and C1-C3; Group 2, 100 μM LL-37 was added to D1-D3; Group 3, untreated induced bacterial cells in wells E1-E3 (control); Group 4, 100 μM LL-37 added to wells F1-F3. Samples were incubated for 15 minutes post-treatment, and 20 μL of 20 mg/mL X-gal substrate was added to each well and allowed to incubate for 15 minutes at 37° C.
A plate was designed as set forth in FIG. 6a: Group 5, induced bacterial cells treated with 100 uM LL-37 (wells A1-A3, B1-B3, C1-C3); Group 6, induced bacterial cells treated with 10% PBS (wells D1-D3), Group 7, non-induced bacteria treated with a lytic agent (wells E1-E3); Group 8, non-induced bacteria untreated (wells F1-F3); Group 9, induced bacteria treated with a lytic agent (wells G1-G3); and Group 10, untreated induced bacteria.
Samples were incubated for 15 minutes post-treatment, and 20 uL of 20 mg/mL X-gal substrate was added to each well and allowed to incubate for 15 minutes at 37° C.
A plate was designed as set forth in FIG. 7a: Group 11, induced bacteria were treated with 100 uM LL-37 (wells A1-A3, B1-B3, and C1-C3); Group 12, induced bacteria that were untreated (wells D1-D3). […]

[2] = system: Non-induced E. coli cells; experiment: β-galactosidase release colour change assay (X-gal), non-induced control cells; conditions: 100 μM LL-37; non-induced cells (Group 4); 15 minutes, then X-gal 15 minutes at 37° C.
Protocol: as §1

[3] = system: induced bacteria, lyophilized; experiment: Bacterial Assay IV: lyophilized and rehydrated induced bacteria, X-gal colour change in tubes; conditions: 100 uM LL-37, rehydrated after 72 hours, X-gal 15 minutes at 37° C.
Protocol: Aliquots of induced bacteria were prepared with 1 mL of the sample dispensed into three Eppendorf tubes. Samples were then lyophilized. After 72 hours to ensure stability, tubes were rehydrated with 1 mL of RPMI 1640 (+) Glucose culture medium and treated. 50 uL of 20 mg/mL X-gal substrate was added to each tube and allowed to incubate for 15 minutes at 37° C.

lacZ transfected E. coli = experiment: Bacterial Assay: 1:2 dilution series of LL-37 on IPTG-induced lacZ transfected E. coli, X-gal colour change; conditions: 15 minutes room temperature, X-gal 15 minutes 37° C.
Protocol: E. coli cells transfected with the lacZ gene that encodes the protein β-galactosidase were obtained. The cells were plated to produce isolate colonies that were then selected.
An isolate colony of lacZ transfected E. coli from the plate of Example 2 was looped and inoculated into 10 mL of RPMI 1640 medium+glucose (available from ThermoFisher Scientific, Waltham, Mass.) and incubated at 37° C. for 24 hours.
The liquid bacterial culture from Example 3 was removed from incubation and centrifuged at 1200 RPM for 7 minutes. The supernatant was removed, and the bacterial pellet was resuspended in 1 mL of RPMI 1640 (−glucose) liquid tissue culture medium as Sample A. A 15 mL centrifuge tube was filled with induction media (8.9 mL RPMI 1640 (−glucose), 100 μL induced IPTG. 1 mL of the resuspended bacterial culture from Sample A was added to the new tube as Sample B, for a final volume of 10 mL. Sample B was incubated at 37° C. for 60 minutes.
After incubation, 100 μL of Sample B was transferred to each of wells A1-A12 and B1-B12. 10 μL of a 2000 μM LL-37 stock solution was then added to well A1, and a 1:2 dilution was conducted across wells A2-A11. The dilution was repeated for wells B1-B11. No LL-37 solution was added to wells A12 and B12 (controls). The plate was incubated for 15 minutes at room temperature. […]

Row | Compound | colorimetric result (color change pink to blue, release of β-galactosidase) ([1]; 10% SDS, 15 minutes post-treatment) | colorimetric result (color change pink to blue, release of β-galactosidase) ([1]; 100 μM LL-37, 15 minutes post-treatment) | colorimetric result (color change pink to blue) [2] | tube color change pink to blue (release of β-galactosidase) [3] | visual color change, higher concentrations of dilution series (lacZ transfected E. coli; wells A1-A5 and B1-B5, 10 μL of 2000 μM stock in well 1, then 1:2 dilution) | visual color change, lower concentrations of dilution series (lacZ transfected E. coli; wells A6-A11 and B6-B11 of the 1:2 dilution series)
1 | CCCCCCCCCCCCOS(=O)(=O)[O-].[Na+] [SDS] | mild color change | – | – | – | – | –
2 | LL-37: anti-microbial alpha-helical 37 amino acid peptide released from human cathelicidin; membrane lytic peptide, human or synthetic | – | completely converted the well color from pink to blue | remained pink | converted the tube color from pink to blue | appeared blue | remained pink
